According to the RepoRT retention time repository (doi:10.1021/acs.analchem.1c00972):

What was measured:
[1] = RP, Waters ACQUITY UPLC BEH C18, 100 × 1 mm, 1.7 µm, 50 °C, 0.3 mL/min, estimated dead time 0.17 min; A: water + 10 mM ammonium bicarbonate; B: 10% water + 90% methanol + 10 mM ammonium bicarbonate; gradient (min/%B) 0/0 15/100 21/100 22/0 30/0; conditions: stereoisomer not certain
[2] = RP, Waters ACQUITY UPLC BEH C18, 100 × 1 mm, 1.7 µm, 50 °C, 0.3 mL/min, estimated dead time 0.17 min; A: water + 0.1% formic acid + 20 mM ammonium formate; B: methanol + 0.1% formic acid + 20 mM ammonium formate; gradient (min/%B) 0/0 15/100 21/100 22/0 30/0; conditions: stereoisomer not certain

SMILES	LC retention time [1] [min]	LC retention time [2] [min]
COP(=S)(OC)Oc1ccc(S(C)=O)c(C)c1 (centres undefined) [Fenthion-sulfoxide]	12.3	12.1
CC(C)(C)NC(=O)C1CCC2C3CCC4NC(=O)C=CC4(C)C3CCC12C (centres undefined) [Finasteride]	14.9	14.6
COc1ncc(F)c2nc(S(=O)(=O)Nc3c(F)cccc3F)nn12 [Florasulam]	9	10.5
CCCCOC(=O)C(C)Oc1ccc(Oc2ccc(C(F)(F)F)cn2)cc1 (centres undefined) [Fluazifop-butyl]	17.1	16.7
CC1CCc2cc(F)cc3c(=O)c(C(=O)O)cn1c23 (centres undefined) [Flumequine]	8.91	11.8
CC1(C)OC2CC3C4CC(F)C5=CC(=O)C=CC5(C)C4C(O)CC3(C)C2(C(=O)CO)O1 (centres undefined) [Flunisolide]	13.8	13.6
CC(=O)C1(O)CCC2C3CC(C)C4=CC(=O)C=CC4(C)C3(F)C(O)CC21C (centres undefined) [Fluorometholone]	14.1	13.8
OCCN1CCN(CCC=C2c3ccccc3Sc3ccc(C(F)(F)F)cc32)CC1 [Flupentixol]	17.3	14.7
O=c1c2cc(F)ccc2nc(-n2cncn2)n1-c1ccc(Cl)cc1Cl [Fluquinconazole]	15	14.7
CCC(=O)OC1(C(=O)SCF)C(C)CC2C3CC(F)C4=CC(=O)C=CC4(C)C3(F)C(O)CC21C (centres undefined) [Fluticasone propionate]	15.6	15.3
COCCCCC(=NOCCN)c1ccc(C(F)(F)F)cc1 [Fluvoxamine]	15.3	13.5
CCOP(=O)(SC(C)CC)N1CCSC1=O (centres undefined) [Fosthiazate]	12.8	12.6
COc1cc2ccc(=O)oc2c(O)c1OC [Fraxidin]	8.22	9.59
CCCCOC(=O)N(C)SN(C)C(=O)Oc1cccc2c1OC(C)(C)C2 [Furathiocarb]	17.1	16.7
O=C1CC2(CCCCC2)CN1 [Gabapentin-Lactam]	11.4	11.3
NCC1(CC(=O)O)CCCCC1 [Gabapentin]	6.17	7.38

SMILES	LC retention time [1] [min]	LC retention time [2] [min]
CC1COC(=O)c2cc3c(cc21)C(C)(C)C(C)C3(C)C (centres undefined) [Galaxolidone]	16.9	16.6
C#CC1(O)C=CC2C3CCC4=CC(=O)CCC4C3CCC21CC (centres undefined) [Gestoden]	14.3	14
COc1ccc(Cl)cc1C(=O)NCCc1ccc(S(=O)(=O)NC(=O)NC2CCCCC2)cc1 [Glibenclamide]	13.9	14.9
O=S(=O)(O)ON=C(Cc1c[nH]c2ccccc12)SC1OC(CO)C(O)C(O)C1O (centres undefined) [Glucobrassicin]	6.03	6.39
Cc1nccc2c1[nH]c1ccccc12 [Harman]	13.4	9.01
COc1ccc2c(c1)[nH]c1c(C)nccc12 [Harmine]	13.5	9.88
CC1(C)CCC2(C(=O)O)CCC3(C)C(=CCC4C5(C)CCC(O)C(C)(CO)C5CCC43C)C2C1 (centres undefined) [Hederagenin]	15.9	17.2
COC(C)C(O)(C(=O)OCC1=CC[N+]2([O-])CCC(O)C12)C(C)C (centres undefined) [Heliotrine N-oxide]	8.96	8.36
COC(C)C(O)(C(=O)OCC1=CCN2CCC(O)C12)C(C)C (centres undefined) [Heliotrine]	11.6	8.05
COCN(COC)c1nc(N(COC)COC)nc(N(COC)COC)n1 [Hexa(methoxymethyl)melamine]	12.9	12.6
CN(C)c1nc(=O)n(C2CCCCC2)c(=O)n1C [Hexazinone]	11.9	11.7
COC(=O)CC(O)(CCCC(C)(C)O)C(=O)OC1C(OC)=CC23CCCN2CCc2cc4c(cc2C13)OCO4 (centres undefined) [Homoharringtonine]	14	9.4
CC=C1C2C=C(C)CC1(N)c1ccc(=O)[nH]c1C2 (centres undefined) [Huperzin A]	11.1	7.5
CCN(CCO)CCCC(C)Nc1ccnc2cc(Cl)ccc12 (centres undefined) [Hydroxychloroquine]	14.1	7.34
O=c1c(OC2OC(CO)C(O)C(O)C2O)c(-c2ccc(O)c(O)c2)oc2cc(O)cc(O)c12 (centres undefined) [Hyperoside]	6.8	9.67
CCC(C)OC(=O)N1CCCCC1CCO (centres undefined) [Icaridin]	14	13.7
